Data reported in ChEMBL document CHEMBL5113453, “Design, synthesis, and biological evaluation of a new series of pyrazole derivatives: Discovery of potent and selective JNK3 kinase inhibitors” (Bioorg Med Chem, 2022).
pIC50: −log10 of the molar value.

What was measured:
CAKI-1 = assay: Antiproliferative activity against human CAKI-1 cells measured after 48 hrs by SRB assay; assay type: functional, cell-based; conditions: for pIC50: CAKI-1, 48 h; for TGI: CAKI-1, time 48 hrs
UACC-257 = assay: Antiproliferative activity against human UACC-257 cells measured after 48 hrs by SRB assay; assay type: functional, cell-based; conditions: for pIC50: UACC-257, 48 h; for TGI: UACC-257, time 48 hrs
Malme-3M = assay: Antiproliferative activity against human Malme-3M cells measured after 48 hrs by SRB assay; assay type: functional, cell-based; conditions: for pIC50: 48 h; for TGI: time 48 hrs
HCC 2998 = assay: Antiproliferative activity against human HCC 2998 cells measured after 48 hrs by SRB assay; assay type: functional, cell-based; conditions: for pIC50: HCC 2998, 48 h; for TGI: HCC 2998, time 48 hrs
M14 = assay: Antiproliferative activity against human M14 cells measured after 48 hrs by SRB assay; assay type: functional, cell-based; conditions: for pIC50: M14, 48 h; for TGI: M14, time 48 hrs
MDA-MB-231 = assay: Antiproliferative activity against human MDA-MB-231 cells measured after 48 hrs by SRB assay; assay type: functional, cell-based; conditions: for pIC50: MDA-MB-231, 48 h; for TGI: MDA-MB-231, time 48 hrs
EKVX = assay: Antiproliferative activity against human EKVX cells measured after 48 hrs by SRB assay; assay type: functional, cell-based; conditions: for pIC50: 48 h; for TGI: time 48 hrs
SR = assay: Antiproliferative activity against human SR cells measured after 48 hrs by SRB assay; assay type: functional, cell-based; conditions: for pIC50: 48 h; for TGI: time 48 hrs
PC-3 = assay: Antiproliferative activity against human PC-3 cells measured after 48 hrs by SRB assay; assay type: functional, cell-based; conditions: for pIC50: PC-3, 48 h; for TGI: PC-3, time 48 hrs
NCI-H322M = assay: Antiproliferative activity against human NCI-H322M cells measured after 48 hrs by SRB assay; assay type: functional, cell-based; conditions: for pIC50: 48 h; for TGI: time 48 hrs
Hs-578T = assay: Antiproliferative activity against human Hs-578T cells measured after 48 hrs by SRB assay; assay type: functional, cell-based; conditions: for pIC50: 48 h; for TGI: time 48 hrs
MCF7 = assay: Antiproliferative activity against human MCF7 cells measured after 48 hrs by SRB assay; assay type: functional, cell-based; conditions: for pIC50: MCF7, 48 h; for TGI: MCF7, time 48 hrs
TK-10 = assay: Antiproliferative activity against human TK-10 cells measured after 48 hrs by SRB assay; assay type: functional, cell-based; conditions: for pIC50: TK-10, 48 h; for TGI: TK-10, time 48 hrs
CCRF-CEM = assay: Antiproliferative activity against human CCRF-CEM cells measured after 48 hrs by SRB assay; assay type: functional, cell-based; conditions: for pIC50: 48 h; for TGI: time 48 hrs
SNB-75 = assay: Antiproliferative activity against human SNB-75 cells measured after 48 hrs by SRB assay; assay type: functional, cell-based; conditions: for pIC50: SNB-75, 48 h; for TGI: SNB-75, time 48 hrs
IGROV-1 = assay: Antiproliferative activity against human IGROV-1 cells measured after 48 hrs by SRB assay; assay type: functional, cell-based; conditions: for pIC50: IGROV-1, 48 h; for TGI: IGROV-1, time 48 hrs
OVCAR-3 = assay: Antiproliferative activity against human OVCAR-3 cells measured after 48 hrs by SRB assay; assay type: functional, cell-based; conditions: for pIC50: OVCAR-3, 48 h; for TGI: OVCAR-3, time 48 hrs
NCI/ADR-RES = assay: Antiproliferative activity against human NCI-ADR-RES cells measured after 48 hrs by SRB assay; assay type: functional, cell-based; conditions: for pIC50: 48 h; for TGI: time 48 hrs
SF-539 = assay: Antiproliferative activity against human SF-539 cells measured after 48 hrs by SRB assay; assay type: functional, cell-based; conditions: for pIC50: SF-539, 48 h; for TGI: SF-539, time 48 hrs
MDA-MB-435 = assay: Antiproliferative activity against human MDA-MB-435 cells measured after 48 hrs by SRB assay; assay type: functional, cell-based; conditions: for pIC50: MDA-MB-435, 48 h; for TGI: MDA-MB-435, time 48 hrs
RXF 393 = assay: Antiproliferative activity against human RXF 393 cells measured after 48 hrs by SRB assay; assay type: functional, cell-based; conditions: for pIC50: RXF 393, 48 h; for TGI: RXF 393, time 48 hrs
KM12 = assay: Antiproliferative activity against human KM12 cells measured after 48 hrs by SRB assay; assay type: functional, cell-based; conditions: for pIC50: KM12, 48 h; for TGI: KM12, time 48 hrs
786-0 = assay: Antiproliferative activity against human 786-0 cells measured after 48 hrs by SRB assay; assay type: functional, cell-based; conditions: for pIC50: 786-0, 48 h; for TGI: 786-0, time 48 hrs
[1] = target: Voltage-gated inwardly rectifying potassium channel KCNH2 (Homo sapiens, UniProt Q12809); assay: Inhibition of hERG measured by fluorescence polarization assay
Voltage-gated inwardly rectifying potassium channel KCNH2, sequence (Q12809 whole entry): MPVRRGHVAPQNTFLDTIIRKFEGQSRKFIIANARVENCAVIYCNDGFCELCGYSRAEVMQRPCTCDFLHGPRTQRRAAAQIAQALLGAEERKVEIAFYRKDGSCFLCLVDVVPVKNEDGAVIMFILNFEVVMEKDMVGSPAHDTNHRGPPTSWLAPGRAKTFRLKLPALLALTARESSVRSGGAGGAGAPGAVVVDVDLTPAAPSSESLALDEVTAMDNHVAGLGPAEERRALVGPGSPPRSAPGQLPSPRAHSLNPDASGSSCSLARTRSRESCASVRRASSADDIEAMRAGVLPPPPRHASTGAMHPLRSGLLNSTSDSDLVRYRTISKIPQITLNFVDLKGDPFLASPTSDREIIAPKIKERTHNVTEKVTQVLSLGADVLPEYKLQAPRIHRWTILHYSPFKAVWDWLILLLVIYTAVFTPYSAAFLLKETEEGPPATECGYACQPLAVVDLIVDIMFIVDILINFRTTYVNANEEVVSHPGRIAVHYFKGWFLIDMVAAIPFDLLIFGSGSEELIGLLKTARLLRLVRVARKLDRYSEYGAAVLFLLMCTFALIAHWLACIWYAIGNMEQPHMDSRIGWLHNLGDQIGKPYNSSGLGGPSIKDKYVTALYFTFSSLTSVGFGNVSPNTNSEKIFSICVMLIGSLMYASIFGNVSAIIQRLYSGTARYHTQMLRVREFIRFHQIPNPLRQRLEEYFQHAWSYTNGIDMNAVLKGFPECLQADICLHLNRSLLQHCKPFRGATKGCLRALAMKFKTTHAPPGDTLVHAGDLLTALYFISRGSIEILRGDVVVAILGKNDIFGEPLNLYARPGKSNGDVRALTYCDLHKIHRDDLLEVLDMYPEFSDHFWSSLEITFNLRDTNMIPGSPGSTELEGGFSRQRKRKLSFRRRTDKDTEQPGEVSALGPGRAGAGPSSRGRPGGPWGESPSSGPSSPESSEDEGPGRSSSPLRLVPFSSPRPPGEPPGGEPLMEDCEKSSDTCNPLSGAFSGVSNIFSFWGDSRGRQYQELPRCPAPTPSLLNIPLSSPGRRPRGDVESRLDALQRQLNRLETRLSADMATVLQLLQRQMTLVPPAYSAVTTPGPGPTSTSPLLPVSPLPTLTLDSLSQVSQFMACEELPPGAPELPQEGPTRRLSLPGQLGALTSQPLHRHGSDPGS

Homo sapiens = organism: Homo sapiens; assay: Ratio IC50 for inhibition of FLT4 (unknown origin) over IC50 for JNK3 (unknown origin)
RPMI-8226 [2] = assay: Induction of apoptosis in human RPMI-8226 cells assessed as fold increase in caspase-3/7 activity at 0.87 uM; assay type: functional
[3] = target: T1, Mitogen-activated protein kinase 8 (Homo sapiens, UniProt P45983); assay: Inhibition of JNK1-alpha-1 (unknown origin) at 1 uM relative to control
T1 sequence (P45983 whole entry): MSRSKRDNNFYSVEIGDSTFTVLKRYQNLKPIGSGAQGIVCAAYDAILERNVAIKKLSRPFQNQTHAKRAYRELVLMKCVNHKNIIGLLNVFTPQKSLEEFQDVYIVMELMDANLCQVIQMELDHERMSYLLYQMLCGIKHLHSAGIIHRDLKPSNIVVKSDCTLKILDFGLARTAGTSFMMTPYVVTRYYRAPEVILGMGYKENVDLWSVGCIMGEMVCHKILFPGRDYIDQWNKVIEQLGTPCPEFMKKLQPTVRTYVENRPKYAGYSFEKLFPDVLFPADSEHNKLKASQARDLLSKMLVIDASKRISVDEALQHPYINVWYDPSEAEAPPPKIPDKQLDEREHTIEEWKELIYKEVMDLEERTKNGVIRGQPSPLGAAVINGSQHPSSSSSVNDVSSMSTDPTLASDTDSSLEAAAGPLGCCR

Cytochrome P450 2D6 = Cytochrome P450 2D6 (Homo sapiens, UniProt P10635); assay: Inhibition of CYP2D6 (unknown origin) using EOMCC as a substrate; assay type: ADME
Cytochrome P450 2D6, sequence (P10635 whole entry): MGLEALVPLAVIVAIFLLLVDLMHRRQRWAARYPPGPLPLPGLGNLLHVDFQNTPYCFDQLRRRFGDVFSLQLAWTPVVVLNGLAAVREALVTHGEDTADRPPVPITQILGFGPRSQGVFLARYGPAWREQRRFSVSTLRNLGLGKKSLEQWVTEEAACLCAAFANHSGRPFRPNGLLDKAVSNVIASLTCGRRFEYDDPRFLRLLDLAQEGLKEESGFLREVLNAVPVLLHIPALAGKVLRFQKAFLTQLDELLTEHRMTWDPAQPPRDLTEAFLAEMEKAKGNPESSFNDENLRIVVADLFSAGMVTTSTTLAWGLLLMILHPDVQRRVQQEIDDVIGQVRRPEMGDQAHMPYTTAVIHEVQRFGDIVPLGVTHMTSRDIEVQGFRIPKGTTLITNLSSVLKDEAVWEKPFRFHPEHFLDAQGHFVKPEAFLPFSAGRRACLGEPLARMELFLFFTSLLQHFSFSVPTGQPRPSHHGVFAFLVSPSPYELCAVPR

[4] = target: T2, Mitogen-activated protein kinase 9 (Homo sapiens, UniProt P45984); assay: Inhibition of JNK2-alpha-2 (unknown origin)
Target sequence in this assay (P45984 whole entry): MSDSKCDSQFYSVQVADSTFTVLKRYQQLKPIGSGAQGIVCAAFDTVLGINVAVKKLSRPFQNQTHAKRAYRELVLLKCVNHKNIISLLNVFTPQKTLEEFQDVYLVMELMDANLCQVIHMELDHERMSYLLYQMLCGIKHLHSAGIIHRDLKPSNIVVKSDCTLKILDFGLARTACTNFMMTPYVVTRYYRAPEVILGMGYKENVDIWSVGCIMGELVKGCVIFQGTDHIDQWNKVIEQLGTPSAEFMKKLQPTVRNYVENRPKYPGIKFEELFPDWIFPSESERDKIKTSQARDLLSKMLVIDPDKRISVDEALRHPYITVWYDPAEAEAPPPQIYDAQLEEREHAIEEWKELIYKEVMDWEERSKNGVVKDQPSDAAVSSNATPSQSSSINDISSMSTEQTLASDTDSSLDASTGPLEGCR

[5] = target: T2, Mitogen-activated protein kinase 9; assay: Inhibition of JNK2-alpha-2 (unknown origin) at 1 uM relative to control
Target sequence in this assay (P45984 whole entry, looked up): as the sequence (P45984 whole entry) above

[6] = target: T3, Vascular endothelial growth factor receptor 3 (Homo sapiens, UniProt P35916); assay: Inhibition of FLT4 (unknown origin)
T3 sequence (P35916 whole entry, the tested form may be a part): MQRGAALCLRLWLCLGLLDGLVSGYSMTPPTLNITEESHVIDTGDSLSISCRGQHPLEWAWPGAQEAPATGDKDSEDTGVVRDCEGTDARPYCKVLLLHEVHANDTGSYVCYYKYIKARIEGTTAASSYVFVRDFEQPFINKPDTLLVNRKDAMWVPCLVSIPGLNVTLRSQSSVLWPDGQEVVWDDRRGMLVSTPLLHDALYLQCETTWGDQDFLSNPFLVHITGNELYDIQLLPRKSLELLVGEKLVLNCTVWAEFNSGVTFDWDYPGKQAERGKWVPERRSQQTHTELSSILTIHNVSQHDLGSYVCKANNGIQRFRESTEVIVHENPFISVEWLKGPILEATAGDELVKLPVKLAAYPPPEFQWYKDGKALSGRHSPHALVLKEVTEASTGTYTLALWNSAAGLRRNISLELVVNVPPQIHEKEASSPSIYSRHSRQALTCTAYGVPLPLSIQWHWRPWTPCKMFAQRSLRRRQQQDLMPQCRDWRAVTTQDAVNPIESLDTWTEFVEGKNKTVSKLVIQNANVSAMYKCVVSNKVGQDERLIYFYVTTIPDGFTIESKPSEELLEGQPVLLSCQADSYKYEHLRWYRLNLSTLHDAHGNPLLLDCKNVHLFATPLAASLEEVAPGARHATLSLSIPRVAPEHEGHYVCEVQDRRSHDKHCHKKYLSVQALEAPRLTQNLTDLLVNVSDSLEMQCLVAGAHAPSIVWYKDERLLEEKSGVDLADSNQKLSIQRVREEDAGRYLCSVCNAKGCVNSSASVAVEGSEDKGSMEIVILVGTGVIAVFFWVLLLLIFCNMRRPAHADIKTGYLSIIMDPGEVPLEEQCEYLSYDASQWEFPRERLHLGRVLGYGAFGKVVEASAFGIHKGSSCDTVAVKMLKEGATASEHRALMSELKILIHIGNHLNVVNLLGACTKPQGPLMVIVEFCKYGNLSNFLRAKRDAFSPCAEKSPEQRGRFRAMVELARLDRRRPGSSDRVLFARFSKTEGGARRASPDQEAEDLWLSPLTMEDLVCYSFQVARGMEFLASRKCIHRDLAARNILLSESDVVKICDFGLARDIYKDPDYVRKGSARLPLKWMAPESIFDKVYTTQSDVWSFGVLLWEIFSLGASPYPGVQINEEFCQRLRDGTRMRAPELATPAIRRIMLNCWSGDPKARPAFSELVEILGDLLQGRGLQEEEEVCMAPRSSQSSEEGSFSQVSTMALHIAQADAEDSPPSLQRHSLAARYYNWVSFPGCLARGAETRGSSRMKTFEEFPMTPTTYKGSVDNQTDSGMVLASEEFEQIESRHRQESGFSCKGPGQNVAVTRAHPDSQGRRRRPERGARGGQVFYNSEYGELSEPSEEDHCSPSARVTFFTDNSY

[7] = target: Mitogen-activated protein kinase 10 (Homo sapiens, UniProt P53779); assay: Inhibition of JNK3 in human HEK293 cells transfected with JNK3-NanoLuc fusion vector measured after 1 hr by NanoBRET assay; assay type: cell-based
Mitogen-activated protein kinase 10, sequence (P53779 whole entry, the tested form may be a part): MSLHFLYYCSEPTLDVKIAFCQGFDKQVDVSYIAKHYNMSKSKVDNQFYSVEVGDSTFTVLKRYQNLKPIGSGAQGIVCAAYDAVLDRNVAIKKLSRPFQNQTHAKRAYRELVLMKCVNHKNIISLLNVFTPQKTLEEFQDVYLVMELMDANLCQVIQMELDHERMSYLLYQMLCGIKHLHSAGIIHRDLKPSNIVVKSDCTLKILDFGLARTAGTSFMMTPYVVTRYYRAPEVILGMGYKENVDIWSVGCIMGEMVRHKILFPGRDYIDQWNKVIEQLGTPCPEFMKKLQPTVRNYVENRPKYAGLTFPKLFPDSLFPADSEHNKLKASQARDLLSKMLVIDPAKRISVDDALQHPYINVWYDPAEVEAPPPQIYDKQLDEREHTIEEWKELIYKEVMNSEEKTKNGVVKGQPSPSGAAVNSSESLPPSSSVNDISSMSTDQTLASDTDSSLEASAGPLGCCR

[8] = tested on: Serine/threonine-protein kinase B-raf (Homo sapiens), P15056 [V600E]; assay: Inhibition of B-RAF V600E mutant (unknown origin) at 1 uM relative to control
Cytochrome P450 3A4 = Cytochrome P450 3A4 (Homo sapiens, UniProt P08684); assay: Inhibition of CYP3A4 (unknown origin) using BOMCC as a substrate; assay type: ADME
RPMI-8226 [9] = assay: Induction of apoptosis in human RPMI-8226 cells assessed as fold increase in caspase-3/7 activity at 5.47 uM; assay type: functional
[10] = target: T1, Mitogen-activated protein kinase 8; assay: Inhibition of JNK1-alpha-1 (unknown origin)
RPMI-8226 [11] = assay: Induction of necrosis in human RPMI-8226 cells assessed as LDH release at 0.87 uM; assay type: functional
[12] = target: T3, Vascular endothelial growth factor receptor 3; assay: Inhibition of FLT4 (unknown origin) at 1 uM relative to control

## O=C(Nc1ccc(Cl)c(C(F)(F)F)c1)N1CCN(c2cc(-c3cn(-c4ccccc4)nc3-c3cccc(O)c3)ccn2)CC1
CAKI-1
  pIC50: 5.38
  TGI: 19.4 µM
UACC-257
  pIC50: 5.32
  TGI: 14.3 µM
Malme-3M
  pIC50: 5.48
  TGI: 8.95 µM
HCC 2998
  pIC50: 5.21
  TGI: > 22 µM
M14
  pIC50: 5.52
  TGI: 12.5 µM
MDA-MB-231
  pIC50: 5.51
  TGI: 7.57 µM
EKVX
  pIC50: 5.59
  TGI: 19.6 µM
SR
  pIC50: 5.51
  TGI: > 22 µM
PC-3
  pIC50: 6.01
  TGI: 17 µM
NCI-H322M
  pIC50: 5.23
  TGI: > 22 µM
Hs-578T
  pIC50: 5.47
  TGI: 15.8 µM
MCF7
  pIC50: 5.74
  TGI: 10.1 µM
TK-10
  pIC50: 5.23
  TGI: > 22 µM
CCRF-CEM
  pIC50: 5.80
  TGI: 9.71 µM
SNB-75
  pIC50: 6.20
  TGI: 11.1 µM
IGROV-1
  pIC50: 5.29
  TGI: > 22 µM
OVCAR-3
  pIC50: 5.75
  TGI: 11.5 µM
NCI/ADR-RES
  pIC50: 5.54
  TGI: 11.9 µM
SF-539
  pIC50: 5.38
  TGI: > 22 µM
MDA-MB-435
  pIC50: 5.64
  TGI: 6.33 µM
RXF 393
  pIC50: 5.62
  TGI: 9.79 µM
KM12
  pIC50: 5.48
  TGI: 15.2 µM
786-0
  pIC50: 5.40
  TGI: > 22 µM

## O=C(NCCCNc1cc(-c2cn(-c3ccccc3)nc2-c2cccc(O)c2)ccn1)Nc1ccc(F)cc1
[1]
  pIC50: < 4.30
Homo sapiens
  Ratio IC50: 8.2
CAKI-1
  pIC50: 5.69
  TGI: 10.7 µM
UACC-257
  pIC50: 5.51
  TGI: 7.54 µM
RPMI-8226 [2]
  fold change (FC): 1.84
[3]
  inhibition: 52%
Malme-3M
  pIC50: 6.08
  TGI: 3.42 µM
Cytochrome P450 2D6
  pIC50: 5.26
HCC 2998
  pIC50: 5.96
  TGI: 4.05 µM
[4]
  pIC50: 6.00
M14
  pIC50: 5.80
  TGI: 5.85 µM
[5]
  inhibition: 53%
MDA-MB-231
  pIC50: 5.66
  TGI: 7.78 µM
EKVX
  pIC50: 5.56
  TGI: 9.51 µM
SR
  pIC50: 5.82
  TGI: 13.8 µM
PC-3
  pIC50: 5.88
  TGI: 8.92 µM
[6]
  pIC50: 6.10
NCI-H322M
  pIC50: 5.43
  TGI: 12.4 µM
Hs-578T
  pIC50: 6.01
  TGI: 5.31 µM
MCF7
  pIC50: 5.63
  TGI: 6.04 µM
TK-10
  pIC50: 5.17
  TGI: 20.3 µM
CCRF-CEM
  pIC50: 5.85
  TGI: > 25 µM
[7]
  pIC50: 5.42
SNB-75
  pIC50: 6.27
  TGI: 3.18 µM
IGROV-1
  pIC50: 5.91
  TGI: 5.82 µM
OVCAR-3
  pIC50: 5.67
  TGI: 8.69 µM
NCI/ADR-RES
  pIC50: 5.45
  TGI: 12.5 µM
[8]
  inhibition: 4%
Cytochrome P450 3A4
  pIC50: 4.73
SF-539
  pIC50: 5.70
  TGI: 5.38 µM
RPMI-8226 [9]
  fold change (FC): 2.75
MDA-MB-435
  pIC50: 5.78
  TGI: 5.05 µM
[10]
  pIC50: 6.00
RXF 393
  pIC50: 6.01
  TGI: 4.85 µM
KM12
  pIC50: 5.58
  TGI: 5.79 µM
RPMI-8226 [11]
  Activity: 8.5%
[12]
  inhibition: 84%
786-0
  pIC50: 6.07
  TGI: 3.61 µM
